Source: US20240228543A1, “CYCLIC PEPTIDE INHIBITORS OF USP22” (THE JOHNS HOPKINS UNIVERSITY, priority 2021, published 2024)
Values joined by “and” are separate entries in the source; they are usually repeats but may differ in a detail not shown here. Identical values can stand only once. Positions of bridges follow the written chain, without caps; N, C: chain ends. Non-standard residues stand in square brackets, D forms with d. Residues, ends and D or L forms follow the SMILES beside them.

Legend:
[1] = target: T1, human DUB module (hDUBm; USP22, ATXN7, ATXN7L3, ENY2) (Homo sapiens, UniProt Q9UPT9); assay: Ub-AMC deubiquitination assay, human DUB module; type: biochemical; details: Ki (apparent, Morrison approximation), Ub-AMC cleavage, 200 nM DUB, 1 μM Ub-AMC
T1 construct: 6xHis (TEV-cleavable) (N, cleaved yes); made in house; host or cells: High Five insect cells (baculovirus, Bac2Bac; virus amplified in Sf9)
Protocol: FIG. 2A is a graph of initial rates of Ub-AMC cleavage by hDUB module as a function of substrate concentration. […] FIGS. 2B-2G are graphs of each cyclic peptide, as indicated, tested for its ability to inhibit Ub-AMC cleavage in the presence of increasing amounts of the peptide into a reaction with a fixed amount of DUB (200 nM) and Ub-AMC (1 μM). Ki values were determined for each curve using the Morrison Ki approximation.
Ub-AMC deubiquitination assay A working stock mixture of either yDUBm or hDUBm was prepared in the presence of either DMSO (mock) or a dilution series of the cyclic peptide. […] Each enzyme:peptide mixture was incubated for 30 min at 30° C. in the case of yDUBm, and 37° C. in the case of hDUBm, with each enzyme complex at 1.033× the desired concentration (207 nM). The enzyme:peptide mixture ([…]) was added to 1 μL of 30 μM U b-AMC (7-amino-4-methylcoumarin) (Boston Biochem), for a final concentration of 200 nM DUBm, the indicated cyclic peptide concentration, and 1 μM Ub-AMC. DUB activity was measured by observing the increase in AMC fluorescence in a plate reader, and the initial rate of fluorescence increase was calculated and plotted as a function of inhibitor concentration (FIGS. 2B-2I). The Ki values were determined using the Morrison approximation of enzyme inhibition equilibria within Prism (Graphpad).
The cyclic peptides that constituted potential inhibitors were chemically synthesized by solid phase peptide synthesis and tested for their effectiveness and specificity as inhibitors in vitro. Since the enzyme kinetics of the human DUB module had not previously been characterized, hDUBm activity was assayed using the fluorogenic substrate, ubiquitin-amino methyl coumarin (Ub-AMC) (FIG. 2A).

[2] = target: T2, USP27x/ATXN7L3/ENY2 (Homo sapiens, UniProt A6NNY8); assay: Inhibition of H2B DUB complexes, Ub-AMC cleavage: USP27x complex; type: biochemical; details: 100 nM complex, 5 μM Ub-AMC
T2 construct: made in house
T2 sequence (A6NNY8 1-438): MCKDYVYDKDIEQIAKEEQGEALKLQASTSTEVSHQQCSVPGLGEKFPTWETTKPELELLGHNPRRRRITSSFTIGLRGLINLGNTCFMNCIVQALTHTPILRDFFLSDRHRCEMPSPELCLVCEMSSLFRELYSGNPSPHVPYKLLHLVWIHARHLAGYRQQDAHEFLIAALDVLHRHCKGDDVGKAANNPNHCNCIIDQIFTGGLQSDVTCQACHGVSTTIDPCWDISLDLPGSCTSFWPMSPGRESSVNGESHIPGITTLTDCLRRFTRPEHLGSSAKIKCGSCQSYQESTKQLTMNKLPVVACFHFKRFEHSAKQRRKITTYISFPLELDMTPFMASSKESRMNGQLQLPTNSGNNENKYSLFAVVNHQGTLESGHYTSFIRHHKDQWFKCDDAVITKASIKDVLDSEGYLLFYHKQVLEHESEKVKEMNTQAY
T2 sequence (Q14CW9 1-347 partner): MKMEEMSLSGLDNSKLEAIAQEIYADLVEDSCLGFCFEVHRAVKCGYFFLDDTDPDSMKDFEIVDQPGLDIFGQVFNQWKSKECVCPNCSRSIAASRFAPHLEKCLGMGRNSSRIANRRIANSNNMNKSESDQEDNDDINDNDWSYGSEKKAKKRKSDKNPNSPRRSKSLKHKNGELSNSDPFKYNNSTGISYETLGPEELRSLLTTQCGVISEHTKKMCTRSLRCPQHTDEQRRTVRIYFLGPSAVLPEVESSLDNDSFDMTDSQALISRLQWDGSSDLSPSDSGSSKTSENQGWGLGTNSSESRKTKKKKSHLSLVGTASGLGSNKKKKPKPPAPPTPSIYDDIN
T2 sequence (Q9NPA8 1-101 partner): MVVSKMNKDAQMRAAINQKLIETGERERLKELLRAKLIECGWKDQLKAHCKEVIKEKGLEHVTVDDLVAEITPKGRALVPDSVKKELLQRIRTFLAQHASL
Protocol: Cleavage rates of 5 μM Ub-AMC were assayed for 75 nM USP22/ATXN7L3/ENY2/ATXN7 (hDUBm), 100 nM USP27x/ATXN7L3/ENY2, or 1000 nM USP51/ATXN7L3/ENY2. Rates were normalized to the uninhibited reaction in each case to determine the fraction of apparent activity.
DUB specificity assays Ubiquitin-rhodamine(110)-glycine cleavage rates were measured for all DUBs available in the DUBprofiler™ panel with two independent replicates (44 in total; Ubiquigent). […] USP22 was not included in the panel, and is not represented in FIG. 12A. […] Initial cleavage rates of each complex were measured on a fixed concentration of 5 μM Ub-AMC.
Heterotrimeric complexes containing USP27x and USP51 were purified, respectively, in complex with ENY2 and ATXN7L3. The activity of these complexes on Ub-AMC was compared to that of the human DUBm, which contains USP22, ENY2, ATXN7L3, and a fourth subunit, ATXN7, that anchors the DUBm to the rest of the SAGA complex.

T1 sequence (Q9UPT9 whole entry, one chain of several): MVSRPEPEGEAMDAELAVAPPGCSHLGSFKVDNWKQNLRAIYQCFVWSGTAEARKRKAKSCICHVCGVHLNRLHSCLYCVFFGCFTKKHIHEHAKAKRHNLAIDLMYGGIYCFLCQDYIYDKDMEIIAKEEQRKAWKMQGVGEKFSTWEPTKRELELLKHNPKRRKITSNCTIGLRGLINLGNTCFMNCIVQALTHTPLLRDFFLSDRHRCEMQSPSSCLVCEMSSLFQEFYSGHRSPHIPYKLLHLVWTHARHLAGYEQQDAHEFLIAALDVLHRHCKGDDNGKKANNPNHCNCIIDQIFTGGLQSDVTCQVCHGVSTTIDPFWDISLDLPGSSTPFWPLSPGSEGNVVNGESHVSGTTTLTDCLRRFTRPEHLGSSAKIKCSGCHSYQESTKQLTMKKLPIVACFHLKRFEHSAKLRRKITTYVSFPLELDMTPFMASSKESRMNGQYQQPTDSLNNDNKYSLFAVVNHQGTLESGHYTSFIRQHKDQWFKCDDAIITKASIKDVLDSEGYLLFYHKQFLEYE
T1 sequence (O15265 3-151 partner limits assumed, one chain of several): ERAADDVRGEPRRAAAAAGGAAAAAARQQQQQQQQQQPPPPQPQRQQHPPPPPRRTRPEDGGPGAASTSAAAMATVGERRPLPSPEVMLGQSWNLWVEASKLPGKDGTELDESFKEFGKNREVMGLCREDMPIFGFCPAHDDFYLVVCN

With CC[C@H](C)[C@@H]1NC(=O)[C@H](C)NC(=O)[C@@H](Cc2ccc(O)cc2)NC(=O)CSC[C@@H](C(N)=O)NC(=O)[C@H](CC(C)C)NC(=O)[C@H](CC(C)C)NC(=O)[C@H]([C@@H](C)O)NC(=O)[C@H]([C@@H](C)O)NC(=O)[C@H](CCCCN)NC(=O)CNC(=O)[C@H](CCCNC(=N)N)NC(=O)[C@H](Cc2ccc(O)cc2)NC(=O)[C@H](CO)NC1=O [hD1] ({CH2CO}-[dY]AISYRGKTTLLC-NH2; thioether N-13) the Ki [1] was < 100 nM and 20.6 nM and the IC50 [2] was 3000 nM.
